Series [1] has as its target T1, human 5-HT2A (h5-HT2A) receptor (Homo sapiens, UniProt P28223).
T1 construct: expressed in transfected cells; grown under G418 and hygromycin B selection
Description: FLIPR assay, human 5-HT2A, agonist mode. It counts as cell-based. The procedure: I. Assessment of the Effect of Exemplary Compounds of Formula I Targeting on Human 5-HT2A (h5-HT2A) Receptor Under Agonist Mode:
I.c. Experimental Methods and Procedures: • 1. Cells were cultured in cell culture medium (DMEM containing 10% FBS, 1×penicillin-streptomycin 300 μg/ml G418 and 100 μg/ml hygromycin B) at 37° C., 5% (v/v) CO2. • 2. One day before the assays, the cells were detached using TrypLE™ Express and cells were counted using cell counter. Only cells with >85% viability were used for the assay. • 3. 20000 cells/well were seeded in 30 μl/well culture medium to a 384-well cell plate and cells were incubated overnight at 37° C., 5% (v/v) CO2. • 4. On the assay day, 2×dye solution was prepared following the manual of the FLIPR® Calcium 6 Assay Kit: i. The dye was diluted with assay buffer (20 mM HEPES in 1×HBSS, PH7.4); ii. Probenecid was added to the final concentration of 5 mM; iii. Vortex vigorously for 1-2 minutes. • 5. Medium was removed from cell plate by flicking the cell plate on towel papers. • 6. 10 μl of assay buffer and 10 μl of 2×dye solution was added to each well of the cell plate. • 7. The cell plate was placed on plate shaker, the plate was agitated at 600 rpm for 2 minutes. The plate was incubated at 37° C. for 2 hours followed by additional 15-minute incubation at 25° C. • 8. 3×compound in assay buffer was prepared: a. Reference compounds were diluted to required concentration with DMSO. The compounds were added to a 384-well compound plate; b. Serial dilutions were performed; c. 10 mM test compounds were added to the compound plate, and 3-fold serial dilutions were performed. d. Transfer 60 nl/well of compounds from source plate to a 384-well compound plate (Corning, 3657) by using an Echo; e. Add 20 μl/well assay buffer to the compound plate; f. Mix the plate on plate shaker for 2 mins; • 9. The cell plate, compound plate and tips were put into FLIPR, 10 μl of 3× compound was transferred to the cell plate per well with FLIPR.
• i. The normalized fluorescence reading (RFU) was calculated as shown below, where Fmax and Fmin stand for maximum and minimum of calcium signal during defined time window: RFU=Fmax−Fmin. • ii. Calculate the percentage activation using following equation:
[formula] • Iii. Calculate EC50 by fitting % activation against log of compound concentrations with Hill equation using XLfit.

Series [2] in a line: Liver microsomes stability, rat. To be noted: for CLint scaled at 2 μM / half-life at 2 μM / microsomal CLint at 2 μM: rat liver microsomes.
Series [3] is described as follows: Liver microsomes stability, human. Particulars: human; for CLint scaled at 2 μM / half-life at 2 μM / microsomal CLint at 2 μM: pooled human liver microsomes. In general terms: Liver microsomes are a subcellular fraction often used to study metabolism.
The nature of series [4]: Liver microsomes stability, mouse. To be noted: for CLint scaled at 2 μM / half-life at 2 μM / microsomal CLint at 2 μM: male, microsomes.
The test system of a further series is Male, C57BL/6J mice. Description: Mouse head twitch. To be noted: for other behavioural and somatic signs accompanying head twitches: psilocybin at 3 and 10 mg/kg, 5-MeO DMT over 3-30 mg/kg. It counts as in vivo. On the procedure:
The effect of different doses of representative compounds of Formula I are evaluated on head-twitch response (HTR) and other behavioural responses as behavior-based models of psychedelic activity.
Male, C57BL/6J mice (body weight range 20-30 g) were dosed with the appropriate dose of test article, and following a 1-minute pre-treatment time, placed in individual observation chambers. Animals were visually assessed for the incidence head twitches continuously over a 1 hr period. Head twitches were defined as a rapid jerk of the head which was not elicited by an external tactile stimulus (Come and Pickering, Psychopharmacologia, 1967, 11(1): 65-78). Each head twitch was individually counted by a trained observer, and the data expressed as the mean±SEM of 6-10 mice per group. Mice were used in a single experiment only.

Where “and” joins values, the source holds several entries; their conditions need not be identical. Equal values may be shown once.

T1 sequence (P28223 whole entry): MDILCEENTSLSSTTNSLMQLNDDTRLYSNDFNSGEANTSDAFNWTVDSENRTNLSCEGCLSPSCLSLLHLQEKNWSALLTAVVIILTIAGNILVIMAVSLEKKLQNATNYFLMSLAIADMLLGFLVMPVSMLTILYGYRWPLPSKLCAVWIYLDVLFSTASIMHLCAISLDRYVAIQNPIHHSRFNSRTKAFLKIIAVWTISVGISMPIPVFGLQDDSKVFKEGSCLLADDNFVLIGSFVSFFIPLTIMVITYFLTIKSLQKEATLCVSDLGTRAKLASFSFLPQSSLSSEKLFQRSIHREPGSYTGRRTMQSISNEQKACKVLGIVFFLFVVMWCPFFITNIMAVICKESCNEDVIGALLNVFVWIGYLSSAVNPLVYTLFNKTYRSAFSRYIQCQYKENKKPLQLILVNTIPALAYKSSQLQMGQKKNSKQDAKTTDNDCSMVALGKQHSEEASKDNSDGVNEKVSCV

For the compound `COc1cc2c(cc1OC)C(C[C@H]1CCCN1C)CN2` (stereo partly drawn) [(R) I-81, 5,6-Dimethoxy-3-(((R)-I-methylpyrrolidin-2-yl)methyl)indoline], the “5-HT2A (FLIPR) RFU@10 μM” value in series [1] is 294 RFU.

`CN1CCC[C@@H]1C[C@H]1CNc2ccc(F)cc21` [(R),(R)-I-47, (R)-5-fluoro-3-(((R)-I-methylpyrrolidin-2-yl)methyl)indoline]: the EC50 (in general, the concentration that produces a half-maximal response) in series [1] amounted to 91 nM. Further, the “5-HT2A (FLIPR) RFU@10 μM” value in series [1] was 787 RFU. Further, the “Predicted hepatic CL” value was 45.31 mL/min/kg in series [2], 2.74 mL/min/kg in series [3] and 13.24 mL/min/kg in series [4]. Also, the “Remaining Percentage” value in series [2] (With NADPH, 0 min) is 100.00%; in series [2] (With NADPH, 30 min), 5.12%; in series [2] (With NADPH, 60 min), 1.45%; in series [2] (Without NADPH, 0 min), 100.00%; in series [2] (Without NADPH, 30 min), 108.30%; in series [2] (Without NADPH, 60 min), 100.00%. Further, the “Remaining Percentage” value in series [3] (With NADPH, 0 min) is recorded as 100.00%; in series [3] (With NADPH, 30 min), 108.74%; in series [3] (With NADPH, 60 min) it was 92.73%; in series [3] (Without NADPH, 0 min), 100.00%; in series [3] (Without NADPH, 30 min) it was 102.35%; in series [3] (Without NADPH, 60 min) it was 95.13%. Moreover, the “Remaining Percentage” value in series [4] (With NADPH, 0 min) is 100.00%; in series [4] (With NADPH, 30 min), 114.03%; in series [4] (With NADPH, 60 min), 89.90%; in series [4] (Without NADPH, 0 min) it was 100.00%; in series [4] (Without NADPH, 30 min) it was 114.71%; in series [4] (Without NADPH, 60 min) it was 87.16%. The CLint scaled (usually the capacity of the preparation to metabolise the compound, expressed as a volume cleared per time) at 2 μM is 253 mL/min/kg in series [2], 3.15 mL/min/kg in series [3] and 15.5 mL/min/kg in series [4]. Further, the half-life (usually the time in which the quantity being followed falls by half) at 2 μM came out at 0.164 h in series [2], 9.19 h in series [3] and 6.51 h in series [4]. Moreover, the microsomal CLint (in general, the rate of metabolic loss divided by the concentration) at 2 μM in series [2] was 141 µL/min/mg; in series [3] it was 2.51 µL/min/mg; in series [4], 3.55 µL/min/mg.

For the compound `[2H]C([2H])([2H])N1CCC[C@@H]1CC1CNc2cc(OC)c(OC)cc21` (stereo partly drawn) [(R)-I-82, 5,6-dimethoxy-3-(((R)-I-(methyl-d3)pyrrolidin-2-yl)methyl)indoline], in series [1], the response was half-maximal at 1560 nM (EC50) and the “5-HT2A (FLIPR) RFU@10 μM” value was 479 RFU.

Take `COc1cccc2c1C(C[C@H]1CCCN1C)CN2` (stereo partly drawn) [(R)-I-94, 4-Methoxy-3-(((R)-I-methylpyrrolidin-2-yl)methyl)indoline]: the midpoint of the response in series [1], the EC50, lay at 9 nM. For the same compound, the “5-HT2A (FLIPR) RFU@10 μM” value in series [1] is reported as 545 RFU. In addition, the results for the “Predicted hepatic CL” value in series [2], in series [3] and in series [4] were 19.77 mL/min/kg, 5.63 mL/min/kg and more than 84.35 mL/min/kg, respectively. The “Remaining Percentage” value is recorded as 100.00% in series [2] (With NADPH, 0 min); 84.38% in series [2] (With NADPH, 30 min); 59.71% in series [2] (With NADPH, 60 min); 100.00% in series [2] (Without NADPH, 0 min); 104.88% in series [2] (Without NADPH, 30 min); 96.34% in series [2] (Without NADPH, 60 min). Further, the “Remaining Percentage” value in series [3] (With NADPH, 0 min) was determined as 100.00%; in series [3] (With NADPH, 30 min) it was 100.93%; in series [3] (With NADPH, 60 min), 83.11%; in series [3] (Without NADPH, 0 min), 100.00%; in series [3] (Without NADPH, 30 min) it was 108.38%; in series [3] (Without NADPH, 60 min), 98.20%. In addition, the “Remaining Percentage” value is 100.00% in series [4] (With NADPH, 0 min); 0.84% in series [4] (With NADPH, 30 min); 0.29% in series [4] (With NADPH, 60 min); 100.00% in series [4] (Without NADPH, 0 min); 109.64% in series [4] (Without NADPH, 30 min); 106.02% in series [4] (Without NADPH, 60 min). The CLint scaled at 2 μM was 30.8 mL/min/kg in series [2], 7.74 mL/min/kg in series [3] and more than 1340 mL/min/kg in series [4]. Also, the half-life at 2 μM is 1.34 h in series [2], 3.74 h in series [3] and less than 0.0752 h in series [4]. The microsomal CLint at 2 μM was 17.2 µL/min/mg in series [2], 6.17 µL/min/mg in series [3] and more than 307 µL/min/mg in series [4].

As for `COc1cccc2c1NCC2C[C@H]1CCCN1C` (stereo partly drawn) [(R)-I-95, 7-Methoxy-3-(((R)-I-methylpyrrolidin-2-yl)methyl)indoline], the “5-HT2A (FLIPR) RFU@10 μM” value in series [1] was 321 RFU.

With `CN1CCC[C@@H]1C[C@@H]1CNc2ccc(F)cc21` [(S),(R)-I-47, (S)-5-fluoro-3-(((R)-I-methylpyrrolidin-2-yl)methyl)indoline], in series [1], the concentration giving a half-maximal response (EC50) stood at 76 nM and the “5-HT2A (FLIPR) RFU@10 μM” value is given as 797 RFU.

With `COc1ccc2c(c1)C(C[C@@H]1CCCN1C)CN2` (stereo partly drawn) [(S)-I-54, 5-Methoxy-3-(((S)-I-methylpyrrolidin-2-yl)methyl)indoline], the “5-HT2A (FLIPR) RFU@10 μM” value in series [1] worked out at 444 RFU.

In the case of `COc1ccc2[nH]cc(CCN(C)C)c2c1` [Compound 5-MeO-DMT], the “head twitch response (mean head twitches over 1 hr)” value was 3.0 with Male, C57BL/6J mice (1 mg/kg SC); 4.2 in the series with Male, C57BL/6J mice (3 mg/kg SC); 7.8 in the series with Male, C57BL/6J mice (10 mg/kg SC); 12.3 with Male, C57BL/6J mice (30 mg/kg SC). The “head twitch response over the dose range tested” value in the series with Male, C57BL/6J mice (SC, psilocybin 0.1-10, 5-MeO DMT 1-30, (R)-I-54 1-60 mg/kg) is recorded as “monotonic increase in head twitches”. Also, the “other behavioural and somatic signs accompanying head twitches” value in the series on Male, C57BL/6J mice (SC) is given as “other behavioural signs associated with 5-HT syndrome (forepaw treading, straub tail, body twitches, backwards walking) emerged”.

Take `CN(C)CCc1c[nH]c2ccccc12` [DMT, N,N-dimethyltryptamine, reference compound]: the “5-HT2A (FLIPR) RFU@10 μM” value in series [1] is 381 RFU.

Consider `CN(C)CCc1c[nH]c2cccc(O)c12` [Psilocin, reference compound], for which the “5-HT2A (FLIPR) RFU@10 μM” value in series [1] was 416 RFU and 308 RFU.

On to `CN(C)CCc1c[nH]c2cccc(OP(=O)(O)O)c12` [Psilocybin], for which the “head twitch response (mean head twitches over 1 hr)” value came to 4.8 with Male, C57BL/6J mice (0.1 mg/kg SC); 6.3 in the series with Male, C57BL/6J mice (0.3 mg/kg SC); 16.3 with Male, C57BL/6J mice (1 mg/kg SC); 7.8 in the series with Male, C57BL/6J mice (3 mg/kg SC); 5.5 in the series with Male, C57BL/6J mice (10 mg/kg SC). In the series with Male, C57BL/6J mice (SC), the “dose of peak head twitch response” value is on record as 1 mg/kg. Moreover, the “other behavioural and somatic signs accompanying head twitches” value in the series with Male, C57BL/6J mice (SC) was “decreased locomotion and decreased core body temperature”.

The values are drawn from patent US20260083703A1, “INDOLINE DERIVATIVES AS SEROTONERGIC AGENTS USEFUL FOR THE TREATMENT OF DISORDERS RELATED THERETO” (MINDSET PHARMA INC., priority 2022, published 2026).
